Molecules are shown by their SMILES.

Results on one molecule are retold here after paper PMC11170914, “A distinct dimer configuration of a diatom Get3 forming a tetrameric complex with its tail-anchored membrane cargo” (BMC Biology, 2024).

For the test, the target named is T1, Pt-Get3a (Phaeodactylum tricornutum, UniProt B7G933).
T1 construct: gene PHATRDRAFT_22896; full length, residues 1-349; expressed in E. coli; N-terminal 6His tag cleaved by TEV protease
T1 sequence (B7G933 1-349): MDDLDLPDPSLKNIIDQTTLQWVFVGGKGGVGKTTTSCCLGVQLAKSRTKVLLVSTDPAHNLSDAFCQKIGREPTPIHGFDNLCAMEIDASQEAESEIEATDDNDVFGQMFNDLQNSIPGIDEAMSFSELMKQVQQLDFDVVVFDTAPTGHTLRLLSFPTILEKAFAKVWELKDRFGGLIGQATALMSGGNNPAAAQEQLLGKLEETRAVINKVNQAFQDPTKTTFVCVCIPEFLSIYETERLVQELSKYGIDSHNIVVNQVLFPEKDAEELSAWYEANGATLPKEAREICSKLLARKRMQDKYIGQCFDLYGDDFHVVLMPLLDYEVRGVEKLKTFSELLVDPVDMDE
Kind of test: X-ray crystallography, […] Å. Conditions: co-crystal with 2 mM ADP, 2 mM MgCl2, 2 mM AlCl3, 8 mM NaF, pH 4.7, 25 °C; Mg2+/ADP in nucleotide-binding domain.

In the case of `Nc1ncnc2c1ncn2[C@@H]1O[C@H](COP(=O)(O)OP(=O)(O)O)[C@@H](O)[C@H]1O` [ADP], the “X-ray crystallography, 2.32 Å” value is “an ADP and a magnesium ion were observed in the two crystallographic independent monomers”.
